O=Cc1cc(C=O)cc(C=O)c1
solubility (mole fraction)
Conditions | 283.15 K | 288.15 K | 293.15 K | 298.15 K | 303.15 K | 308.15 K | 313.15 K | 318.15 K | 323.15 K
in 1,4-dioxane | – | 0.0135 | 0.0164 | 0.0206 | 0.0249 | 0.0288 | 0.0336 | 0.0372 | 0.041
in acetone | 0.01 | 0.0112 | 0.0132 | 0.0152 | 0.0191 | 0.023 | 0.0265 | 0.0307 | 0.035
in acetonitrile | 0.00502 | 0.00616 | 0.00711 | 0.00872 | 0.01 | 0.0113 | 0.0137 | 0.0153 | 0.0178
in ethanol | 0.0018 | 0.00208 | 0.00251 | 0.00297 | 0.00365 | 0.00429 | 0.0052 | 0.00614 | 0.00703
in isobutanol | 0.000219 | 0.000308 | 0.000396 | 0.000488 | 0.000917 | 0.00193 | 0.00277 | 0.00387 | 0.00601
in isopropanol | 0.000462 | 0.000512 | 0.000605 | 0.00069 | 0.000803 | 0.00147 | 0.00216 | 0.00291 | 0.00363
in methanol | 0.00351 | 0.00442 | 0.00563 | 0.00691 | 0.00858 | 0.0101 | 0.0122 | 0.0142 | 0.0158
in n-butanol | 0.000718 | 0.000765 | 0.000864 | 0.0013 | 0.00181 | 0.00242 | 0.00288 | 0.0037 | 0.00565
in n-pentanol | 0.00134 | 0.00153 | 0.00185 | 0.00216 | 0.00244 | 0.00276 | 0.00341 | 0.0042 | 0.00538
in n-propanol | 0.000909 | 0.00104 | 0.00131 | 0.00154 | 0.00194 | 0.00243 | 0.00296 | 0.00347 | 0.00405
in sec-butanol | 0.000294 | 0.000394 | 0.000601 | 0.000789 | 0.00101 | 0.00128 | 0.00155 | 0.00206 | 0.00254
in water | 4.1e-05 | 6.1e-05 | 8.8e-05 | 0.000108 | 0.000132 | 0.000152 | 0.00017 | 0.000185 | 0.000198

Source: BigSolDB 2.1
